Measured values: patent US10517842B2, “Methods of modulating miRNA levels and compositions for use in the same” (Los Angeles Biomedical Research Institute at Harbor-UCLA …, priority 2017, dated 2019)

Key:
[1] = system: 3′UTR of COL3A1 in lung cancer cell line A549; experiment: 3′UTR luciferase reporter assay in A549; format: cell-based; conditions: Tranilast
[2] = system: miR-200c promoter; experiment: Methylation-specific PCR in LSMC; format: cell-based, human; conditions: Tranilast 200 μM, 24 hrs, Me/Me+Un, P<0.05
Method: (§1) LSMC at sub-confluence were treated with Tranilast (200 μM) for 24 hrs and genomic DNA was extracted and treated with bisulfite (EZ DNA Methylation Kit, Zymo Research Corporation, Irvine, Calif.). Since methylated cytosine residues remained unchanged after bisulfite conversion, this approach allows distinguishing DNA sequences which are methylated or unmethylated in specific genomic regions using sequence-specific PCR primers (Li & Dahiya, “MethPrimer: designing primers for methylation PCRs,” Bioinformatics (2002)18:1427-31). The pair of primers used to detect the methylated (Me) sequence of miR-29c promoter were 5′-[…]-3′ (SEQ ID NO:17) and 5′-[…]-3′ (SEQ ID NO:18) and for the unmethylated (Un) sequence of miR-29c promoter were 5′-[…]-3′ (SEQ ID NO:19) and 5′-[…]-3′ (SEQ ID NO:20). The pair of primers used to detect the methylated (Me) sequence of miR-200c promoter were 5′-[…]-3′ (SEQ ID NO:21) and 5′-[…]-3′ (SEQ ID NO:22), and for the unmethylated (Un) sequence of miR-200c promoter were 5′-[…]-3′ (SEQ ID NO:23) and 5′-[…]-3′ (SEQ ID NO:24). DNA amplification was carried out following manufacturer's protocol (HotStarTaq Plus PCR reagent, Qiagen, Valencia, Calif.). The PCR condition was 5 min at 95° C., followed by 40 cycles of amplification at 94° C. for 30 seconds, 30 seconds at 55° C., and 1 min at 72° C. […]

[3] = system: miR-29c promoter; experiment: Methylation-specific PCR in LSMC; format: cell-based, human; conditions: Tranilast 200 μM, 24 hrs, Me/Me+Un, P<0.05
Method: as §1

[4] = system: leiomyoma xenografts; experiment: Leiomyoma xenograft mouse model (LSMC under the kidney capsule); format: in vivo, CB-17 SCID/beige mice; conditions: Tranilast 50 mg/kg/day i.p. daily for 3 weeks, mice
Text: We injected primary leiomyoma cells under the kidney capsule of CB-17 SCID/beige mice using a 27 g needle as previously reported (Ishikawa et al., “Progesterone is essential for maintenance and growth of uterine leiomyoma,” Endocrinology (2010) 151: 2433-2442; Ono et al, “Paracrine activation of WNT/beta-catenin pathway in uterine leiomyoma stem cells promotes tumor growth,” Proceedings of the National Academy of Sciences of the United States of America (2013) 110: 17053-17058). After two weeks we excised the xenograft, fixed the tissue, embedded it in paraffin and obtained 5 μm sections for staining. […] This animal model is used to evaluate the efficacy of Tranilast on tumor initiation, progression, histology, and expression of miR-200c and miR-29c and their respective target genes.
Freshly isolated LSMC are injected under the kidney capsule of female ovariectomized CB-17 SCID/beige mice implanted with pellet containing estradiol (0.05 mg/90 d release) and progesterone (25 mg/60 d release) as previously reported (Ishikawa et al., “Progesterone is essential for maintenance and growth of uterine leiomyoma,” Endocrinology (2010) 151: 2433-2442; Ono et al, “Paracrine activation of WNT/beta-catenin pathway in uterine leiomyoma stem cells promotes tumor growth,” Proceedings of the National Academy of Sciences of the United States of America (2013) 110: 17053-17058). For injections of leiomyoma cells, freshly isolated cells from hysterectomy specimens are suspended in rat-tail collagen (type I) solution (BD Biosciences) at 1×10^6 cells/10 μl and grafted onto kidney capsule.
To determine the effects of Tranilast on tumor initiation, immediately after subcapsular injection of cells mice (10 per group) will be treated i.p. daily for 3 weeks with vehicle (1% DMSO) or Tranilast (50 mg/kg/day) (Kim et al., “Effects of tranilast and pentoxifylline in a mouse model of chronic asthma using house dust mite antigen,” The Journal of asthma: official journal of the Association for the Care of Asthma (2009) 46: 884-894) at which point the animals are sacrificed and tumors excised, weighed and measured and subjected for further analyses detailed below.
To determine tumor progression in an additional four groups (10/group), LMSC cells are injected under the kidney capsule and tumors are allowed to develop for five weeks. Mice are then injected i.p. daily for 3 more weeks with vehicle or Tranilast (50 mg/kg/day) (Kim et al., “Effects of tranilast and pentoxifylline in a mouse model of chronic asthma using house dust mite antigen,” The Journal of asthma: official journal of the Association for the Care of Asthma (2009) 46: 884-894) at which time the animals are sacrificed and tumors excised, weighed, measured and subjected for further analysis.
For tumor analysis, portions of tumors are allocated for RNA and protein extraction, and the remainder fixed in 4% neutral-buffered formalin and embedded in paraffin (FFPE) for histologic analysis. To assess the rate of collagen deposition, 5 μm cut paraffin sections are subjected to histologic analysis and stained with Masson's Trichrome and Sirius Red (Sigma-Aldrich), and images are analyzed by Image-Pro Plus software (Media Cybernetics) as described in detail in our prior publications (Khorram et al., “Nutrient restriction in utero induces remodeling of the vascular extracellular matrix in rat offspring,” Reproductive sciences (2007) 14: 73-80; Khorram et al., “In utero undernutrition in rats induces increased vascular smooth muscle content in the offspring, American journal of obstetrics and gynecology (2007) 196: 486.e481-488). For Immunohistochemistry, the sections are de-paraffinized in xylene, and heated in 0.01 M citrate buffer for 15 min in a microwave oven. Slides are then incubated in methanol containing 0.3% hydrogen peroxide. Slides are incubated with primary antibody or control serum, washed, and followed by application of secondary antibody. The chromogen used is diaminobenzidine (DAKO). […]

COc1ccc(C=CC(=O)Nc2ccccc2C(=O)O)cc1OC [Tranilast, 2-[[3-(3,4-dimethoxyphenyl)-1-oxo-2-propenyl]amino]benzoic acid]
activity of luciferase reporter containing 3′UTR of COL3A1 [1]: Inhibits
methylation status in miR-200c promoter [2]: significantly suppressed
methylation status in miR-29c promoter [3]: significantly suppressed
NF-kB signaling in xenograft [4]: inhibition
cell proliferation (Ki-67 and PCNA labeling index) [4]: reduce
leiomyoma size [4]: shrinkage
methytransferases (DNMT1) in xenograft [4]: inhibition
miR-29c expression in xenograft [4]: up-regulate
miR-200c expression in xenograft [4]: up-regulate
rate of collagen deposition (Sirius Red staining) [4]: reduce
